The text below walks through data of ChEMBL document CHEMBL4376864, “Binding Loop Substitutions in the Cyclic Peptide SFTI-1 Generate Potent and Selective Chymase Inhibitors” (J Med Chem, 2020).

What is called Km is the substrate concentration at which the rate is half of its maximum. What is called Ki is a dissociation constant, usually derived from enzyme kinetics or from competition with a known ligand. In general, IC50 refers to the concentration needed to halve the response being measured.

Bridge positions count the residues as written; N and C are the ends. Square brackets hold non-standard residues; d marks the D form. Peptide text beside a SMILES is read from it. * marks the point of attachment. Phe(4-NO2) = N[C@@H](Cc1ccc([N+](=O)[O-])cc1)C(=O)O; Phe(4-Cl) = N[C@@H](Cc1ccc(Cl)cc1)C(=O)O; Phe(4-I) = N[C@@H](Cc1ccc(I)cc1)C(=O)O; Phe(4-Me) = Cc1ccc(C[C@H](N)C(=O)O)cc1; pNA = O=[N+]([O-])c1ccc(N*)cc1; Nle = CCCC[C@H](N)C(=O)O Some results are limits rather than exact numbers.

Data set [1] has as its target T1, Chymase (Homo sapiens, UniProt P23946).
T1 sequence (P23946 whole entry): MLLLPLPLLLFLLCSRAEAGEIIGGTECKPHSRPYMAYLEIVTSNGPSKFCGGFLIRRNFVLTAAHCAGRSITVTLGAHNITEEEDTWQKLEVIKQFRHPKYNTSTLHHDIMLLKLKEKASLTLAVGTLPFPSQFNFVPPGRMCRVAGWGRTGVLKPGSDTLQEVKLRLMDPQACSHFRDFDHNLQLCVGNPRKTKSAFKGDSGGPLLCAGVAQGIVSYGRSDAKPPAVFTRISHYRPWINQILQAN
The experiment in a line: Substrate activity at recombinant human chymase expressed in Pichia pastoris X-33 cells assessed as Km by spectrophotometry analysis. In kind it is ADME.

The target in data set [2] is T1, Chymase. The data set is described as follows: Substrate activity at recombinant human chymase expressed in Pichia pastoris X-33 cells assessed as Kcat by spectrophotometry analysis. In kind it is ADME.
Data set [3] deals with T1, Chymase. The data set is described as follows: Substrate activity at recombinant human chymase expressed in Pichia pastoris X-33 cells assessed as ratio of Kcat/Km by spectrophotometry analysis. In kind it is ADME.
Data set [4] addresses T1, Chymase. The data set is described as follows: Inhibition of recombinant human chymase expressed in Pichia pastoris X-33 cells using NleTDY-pNA as substrate assessed as cleavage of pNA at pH 7.2 and 298 K by spectrophotometry analysis.
A further data set deals with T2, Cathepsin G (Homo sapiens, UniProt P08311).
T2 sequence (P08311 whole entry): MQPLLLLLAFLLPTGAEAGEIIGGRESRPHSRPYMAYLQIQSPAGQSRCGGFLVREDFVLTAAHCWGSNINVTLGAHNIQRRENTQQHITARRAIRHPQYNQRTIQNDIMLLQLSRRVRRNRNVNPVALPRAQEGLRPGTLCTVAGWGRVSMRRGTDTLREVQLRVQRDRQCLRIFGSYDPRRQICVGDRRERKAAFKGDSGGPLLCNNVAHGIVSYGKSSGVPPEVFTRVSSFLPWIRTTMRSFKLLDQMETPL
The experiment in a line: Inhibition of human cathepsin G using Suc-AAPF-MCA as substrate at pH 7.2 and 298 K measured every 60 secs for 600 secs.

The target in the next data set is Chymotrypsin (Homo sapiens, UniProt Q99895+P17538+P40313+Q6GPI1). The data set is described as follows: Inhibition of human chymotrypsin using Suc-AAPF-MCA as substrate at pH 8 and 298 K measured every 60 secs for 600 secs. In kind it is protein assay.
The species named for data set [5] is Homo sapiens. The data set is described as follows: Selectivity index, ratio of Ki for human cathepsin G using Suc-AAPF-MCA as substrate to Ki for recombinant human chymase expressed in Pichia pastoris X-33 cells using NleTDY-pNA as substrate.
The species entered for data set [6] is Homo sapiens. The data set is described as follows: Selectivity index, ratio of Ki for human chymotrypsin using Suc-AAPF-MCA as substrate to Ki for recombinant human chymase expressed in Pichia pastoris X-33 cells using NleTDY-pNA as substrate.
A further data set addresses Kallikrein-7 (Homo sapiens, UniProt P49862). The experiment in a line: Inhibition of recombinant human KLK7 expressed in Pichia pastoris X-33 using KHLY-pNA as substrate at pH 8 and 298 K measured every 60 secs for 600 secs.
The target of a further data set is T3, Neutrophil elastase (Homo sapiens, UniProt P08246).
T3 sequence (P08246 whole entry): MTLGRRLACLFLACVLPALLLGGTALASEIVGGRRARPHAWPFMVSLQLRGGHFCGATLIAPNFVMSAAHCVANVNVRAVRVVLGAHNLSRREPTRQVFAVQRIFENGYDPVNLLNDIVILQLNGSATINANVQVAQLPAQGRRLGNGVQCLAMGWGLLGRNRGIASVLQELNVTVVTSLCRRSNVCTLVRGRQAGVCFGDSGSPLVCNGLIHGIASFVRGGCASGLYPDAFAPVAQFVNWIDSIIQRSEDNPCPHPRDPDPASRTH
The experiment in a line: Inhibition of human neutrophil elastase using MeOSuc-AAPV-MCA as substrate at pH 7.2 and 298 K measured every 60 secs for 600 secs.

The nature of data set [7]: Inhibition of human cationic trypsin using Boc-VPR-MCA as substrate at pH 8 and 298 K measured every 60 secs for 600 secs.
Another data set has as its target Prothrombin (Homo sapiens, UniProt P00734). The experiment in a line: Inhibition of human thrombin using Boc-VPR-MCA as substrate at pH 8 and 298 K measured every 60 secs for 600 secs.
The target of another data set is T4, Coagulation factor XII (Homo sapiens, UniProt P00748).
T4 sequence (P00748 whole entry): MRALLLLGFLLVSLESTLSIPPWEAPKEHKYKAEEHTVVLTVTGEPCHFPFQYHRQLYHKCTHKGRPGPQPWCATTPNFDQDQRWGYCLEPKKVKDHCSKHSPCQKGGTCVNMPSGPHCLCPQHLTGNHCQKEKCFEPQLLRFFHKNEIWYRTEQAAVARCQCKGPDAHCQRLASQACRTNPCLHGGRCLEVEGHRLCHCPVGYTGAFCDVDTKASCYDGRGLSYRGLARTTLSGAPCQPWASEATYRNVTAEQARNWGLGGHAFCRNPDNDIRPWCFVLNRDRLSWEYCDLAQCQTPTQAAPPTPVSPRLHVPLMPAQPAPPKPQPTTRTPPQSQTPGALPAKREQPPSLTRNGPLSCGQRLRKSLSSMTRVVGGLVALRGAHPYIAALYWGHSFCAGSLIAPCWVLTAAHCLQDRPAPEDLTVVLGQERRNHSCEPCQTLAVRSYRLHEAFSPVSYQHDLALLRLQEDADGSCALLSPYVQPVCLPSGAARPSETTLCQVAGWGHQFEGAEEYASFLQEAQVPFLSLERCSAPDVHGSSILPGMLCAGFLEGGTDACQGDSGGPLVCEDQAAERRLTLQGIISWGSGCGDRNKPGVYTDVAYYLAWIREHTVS
The data set is described as follows: Inhibition of human coagulation factor 12a using Ac-QRFR-pNA as substrate at pH 8 and 298 K measured every 60 secs for 600 secs.

Data set [8] addresses T1, Chymase. The experiment in a line: Inhibition of recombinant human chymase expressed in Pichia pastoris X-33 cells assessed as decrease in angiotensin 1 cleavage to angiotensin 2 incubated for 120 mins at 298 K by UPLC-MS analysis.

Chain of Kallikrein-7 (P49862 whole entry): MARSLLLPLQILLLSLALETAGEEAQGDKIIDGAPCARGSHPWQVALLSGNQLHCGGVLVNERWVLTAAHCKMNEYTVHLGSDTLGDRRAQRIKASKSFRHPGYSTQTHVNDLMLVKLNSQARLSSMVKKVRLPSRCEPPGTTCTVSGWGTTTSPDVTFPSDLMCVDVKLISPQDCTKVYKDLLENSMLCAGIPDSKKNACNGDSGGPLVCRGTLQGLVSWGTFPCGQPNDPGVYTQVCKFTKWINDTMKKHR

On to `C[C@@H](O)[C@H](NC(=O)[C@@H](N)Cc1ccccc1)C(=O)N[C@@H](CC(=O)O)C(=O)N[C@@H](Cc1ccc(O)cc1)C(=O)Nc1ccc([N+](=O)[O-])cc1` (H-FTDY-pNA), for which the Km on Chymase [1] worked out at 370 µM. Also, the Kcat on Chymase [2] worked out at 14 s⁻¹. Further, the Kcat/Km on Chymase [3] turned out to be 3.8 ×10⁴ /M/s.
The corresponding values for `C[C@@H](O)[C@H](NC(=O)[C@H](CCC(=O)O)NC(=O)[C@@H](N)CCCNC(=N)N)C(=O)N[C@@H](Cc1ccc(O)cc1)C(=O)Nc1ccc([N+](=O)[O-])cc1` (H-RETY-pNA) are 410 µM, 13 s⁻¹ and 3.2 ×10⁴ /M/s.
Regarding `C[C@@H](O)[C@H](NC(=O)[C@@H](NC(=O)[C@@H](N)CCCNC(=N)N)[C@@H](C)O)C(=O)N[C@@H](Cc1ccc(O)cc1)C(=O)Nc1ccc([N+](=O)[O-])cc1` (H-RTTY-pNA), at Chymase [1], the Km stood at 530 µM. Besides, the Kcat at Chymase [2] was determined as 18 s⁻¹. On Chymase [3], the Kcat/Km worked out at 3.4 ×10⁴ /M/s.
The corresponding values for `CCCC[C@H](N)C(=O)N[C@H](C(=O)N[C@@H](CC(=O)O)C(=O)N[C@@H](Cc1ccc(O)cc1)C(=O)Nc1ccc([N+](=O)[O-])cc1)[C@@H](C)O` (H-[Nle]TDY-pNA) are 550 µM, 22 s⁻¹ and 4 ×10⁴ /M/s.
With `N=C(N)NCCC[C@@H]1NC(=O)CNC(=O)[C@H](CC(=O)O)NC(=O)[C@@H]2CCCN2C(=O)[C@H](Cc2ccccc2)NC(=O)[C@@H]2CSSC[C@H](NC1=O)C(=O)N[C@@H](CCC(N)=O)C(=O)N[C@@H](Cc1ccc(O)cc1)C(=O)N[C@@H](CO)C(=O)N[C@@H](CCC(=O)O)C(=O)N1CCC[C@H]1C(=O)N1CCC[C@H]1C(=O)N[C@@H](CCC(=O)O)C(=O)N2` (cyclo(CFPDGRCQYSEPPE); disulfide 1-7), the Ki worked out at 6.6 nM on Chymase [4], 54 nM at Cathepsin G and 2900 nM at Chymotrypsin. Besides, the Ratio Ki stood at 8.2 in the data set filed under Homo sapiens [5] and 440 in the data set filed under Homo sapiens [6].
As to `N=C(N)NCCC[C@@H]1NC(=O)CNC(=O)[C@H](CC(=O)O)NC(=O)[C@@H]2CCCN2C(=O)[C@H](Cc2ccccc2)NC(=O)[C@@H]2CSSC[C@H](NC1=O)C(=O)N[C@@H](CCC(N)=O)C(=O)N[C@@H](Cc1ccc(Cl)cc1)C(=O)N[C@@H](CO)C(=O)N[C@@H](CCC(=O)O)C(=O)N1CCC[C@H]1C(=O)N1CCC[C@H]1C(=O)N[C@@H](CCC(=O)O)C(=O)N2` (cyclo(CFPDGRCQ[Phe(4-Cl)]SEPPE); disulfide 1-7), the Ki at Chymase [4] was 1.8 nM; on Cathepsin G, 150 nM; at Chymotrypsin, 330 nM. The IC50 at Kallikrein-7 was greater than 10000 nM; against Neutrophil elastase, greater than 10000 nM; in [7], greater than 10000 nM; against Prothrombin it was greater than 10000 nM; against Coagulation factor XII it was greater than 10000 nM; at Chymase [8], 33 nM. In addition, the Ratio Ki in the data set filed under Homo sapiens [5] came out at 83.
As for `N=C(N)NCCC[C@@H]1NC(=O)CNC(=O)[C@H](CC(=O)O)NC(=O)[C@@H]2CCCN2C(=O)[C@H](Cc2ccccc2)NC(=O)[C@@H]2CSSC[C@H](NC1=O)C(=O)N[C@@H](CCC(N)=O)C(=O)N[C@@H](Cc1ccc(I)cc1)C(=O)N[C@@H](CO)C(=O)N[C@@H](CCC(=O)O)C(=O)N1CCC[C@H]1C(=O)N1CCC[C@H]1C(=O)N[C@@H](CCC(=O)O)C(=O)N2` (cyclo(CFPDGRCQ[Phe(4-I)]SEPPE); disulfide 1-7), the Ki at Chymase [4] was determined as 19 nM; on Cathepsin G it was 1200 nM. For the same compound, the IC50 (at Chymotrypsin; on Kallikrein-7; against Neutrophil elastase; in data set [7]; against Prothrombin; at Coagulation factor XII) was greater than 10000 nM throughout. For the same compound, on Chymase [8], the half-inhibitory concentration (IC50) is 290 nM.
Take `Cc1ccc(C[C@@H]2NC(=O)[C@H](CCC(N)=O)NC(=O)[C@@H]3CSSC[C@H](NC(=O)[C@H](CCC(=O)O)NC(=O)[C@@H]4CCCN4C(=O)[C@@H]4CCCN4C(=O)[C@H](CCC(=O)O)NC(=O)[C@H](CO)NC2=O)C(=O)N[C@@H](Cc2ccccc2)C(=O)N2CCC[C@H]2C(=O)N[C@@H](CC(=O)O)C(=O)NCC(=O)N[C@@H](CCCNC(=N)N)C(=O)N3)cc1` (cyclo(CFPDGRCQ[Phe(4-Me)]SEPPE); disulfide 1-7): the figures for the Ki on Chymase [4], at Cathepsin G and on Chymotrypsin were 2.2 nM, 160 nM and 1500 nM, respectively. Further, the IC50 (at Kallikrein-7; at Neutrophil elastase; in data set [7]; against Prothrombin; at Coagulation factor XII) was greater than 10000 nM in each case. For the same compound, the Ratio Ki was 72 to 80 in the data set filed under Homo sapiens [5] and 180 in the data set filed under Homo sapiens [6].
Turning to `N=C(N)NCCC[C@@H]1NC(=O)CNC(=O)[C@H](CC(=O)O)NC(=O)[C@@H]2CCCN2C(=O)[C@H](Cc2ccccc2)NC(=O)[C@@H]2CSSC[C@H](NC1=O)C(=O)N[C@@H](CCC(N)=O)C(=O)N[C@@H](Cc1ccc([N+](=O)[O-])cc1)C(=O)N[C@@H](CO)C(=O)N[C@@H](CCC(=O)O)C(=O)N1CCC[C@H]1C(=O)N1CCC[C@H]1C(=O)N[C@@H](CCC(=O)O)C(=O)N2` (cyclo(CFPDGRCQ[Phe(4-NO2)]SEPPE); disulfide 1-7), the Ki on Chymase [4] amounted to 54 nM; at Cathepsin G, 5200 nM; on Chymotrypsin it was 920 nM. For the same compound, the IC50 (at Kallikrein-7; against Neutrophil elastase; in data set [7]; against Prothrombin; against Coagulation factor XII) was greater than 10000 nM throughout. Moreover, the Ratio Ki in the data set listed under Homo sapiens [5] came out at 96.
